Source: PubChem BioAssay AID248 (DTP/NCI, 2004)
Values joined by “and” are separate entries in the source; they are usually repeats but may differ in a detail not shown here. Equal values may be shown once. Toxic doses and inconclusive results are not listed.

Test system: L1210 leukemia ip in BDF1 mice, survival T/C
Test: NCI In Vivo Anticancer Drug Screen. Data for tumor model L1210 Leukemia (intraperitoneal) in B6D2F1 (BDF1) mice
Conditions: endpoint: mean survival time, higher = longer survival
Method in brief: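 Tumor was transplanted into mice, which were then dosed with test compound or vehicle alone. Survival was recorded for each group, and the treated figure was expressed relative to the control figure.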

[1] = dose: 100.0 mg/kg/injection, schedule: Q01DX001 (ip), vehicle: saline
[2] = dose: 100.0 mg/kg/injection, schedule: Q01DX009 (ip), vehicle: saline
[3] = dose: 100.0 mg/kg/injection, schedule: Q04DX003 (ip), vehicle: saline
[4] = dose: 200.0 mg/kg/injection, schedule: Q01DX001 (ip), vehicle: saline
[5] = dose: 200.0 mg/kg/injection, schedule: Q01DX009 (ip), vehicle: saline
[6] = dose: 200.0 mg/kg/injection, schedule: Q04DX003 (ip), vehicle: saline
[7] = dose: 400.0 mg/kg/injection, schedule: Q01DX001 (ip), vehicle: saline
[8] = dose: 400.0 mg/kg/injection, schedule: Q01DX009 (ip), vehicle: saline
[9] = dose: 400.0 mg/kg/injection, schedule: Q04DX003 (ip), vehicle: saline
[10] = dose: 50.0 mg/kg/injection, schedule: Q01DX009 (ip), vehicle: saline
[11] = dose: 100.0 mg/kg/injection, schedule: Q01DX009 (ip), vehicle: Klucel (hydroxypropylcellulose) (HPC)
[12] = dose: 100.0 mg/kg/injection, schedule: Q01DX001 (ip), vehicle: carboxymethylcellulose (CMC)
[13] = dose: 200.0 mg/kg/injection, schedule: Q01DX001 (ip), vehicle: carboxymethylcellulose (CMC)
[14] = dose: 400.0 mg/kg/injection, schedule: Q01DX001 (ip), vehicle: carboxymethylcellulose (CMC)
[15] = dose: 100.0 mg/kg/injection, schedule: Q04DX003 (ip), vehicle: saline with Tween-80
[16] = dose: 200.0 mg/kg/injection, schedule: Q04DX003 (ip), vehicle: saline with Tween-80
[17] = dose: 12.5 mg/kg/injection, schedule: Q01DX009 (ip), vehicle: Klucel (hydroxypropylcellulose) (HPC)
[18] = dose: 25.0 mg/kg/injection, schedule: Q01DX009 (ip), vehicle: Klucel (hydroxypropylcellulose) (HPC)
[19] = dose: 100.0 mg/kg/injection, schedule: Q04DX003 (ip), vehicle: Klucel (hydroxypropylcellulose) (HPC)
[20] = dose: 25.0 mg/kg/injection, schedule: Q04DX003 (ip), vehicle: Klucel (hydroxypropylcellulose) (HPC)
[21] = dose: 50.0 mg/kg/injection, schedule: Q04DX003 (ip), vehicle: Klucel (hydroxypropylcellulose) (HPC)

Q: What does the source list for `Cc1cccc(OCCOC(=O)Nc2cccc(C(F)(F)F)c2)c1`?
A: T/C [1]: 104 % of control; T/C [2]: 100 % of control and 87 % of control; T/C (dose: 100.0 mg/kg/injection, schedule: Q04DX002 (ip), vehicle: saline): 100 % of control and 101 % of control; T/C [3]: 101 % of control; T/C [4]: 106 % of control; T/C [5]: 92 % of control and 87 % of control; T/C (dose: 200.0 mg/kg/injection, schedule: Q04DX002 (ip), vehicle: saline): 100 % of control and 105 % of control; T/C [6]: 106 % of control; T/C [7]: 109 % of control; T/C [8]: 94 % of control; T/C (dose: 400.0 mg/kg/injection, schedule: Q04DX002 (ip), vehicle: saline): 92 % of control and 97 % of control; T/C [9]: 103 % of control

Q: Which results are given for `CC1(C)N=C(N)N=C(N)N1c1ccc(CCC(=O)Nc2ccc(S(=O)(=O)F)cc2)cc1`?
A: T/C (dose: 0.8 mg/kg/injection, schedule: Q01DX009 (ip), vehicle: saline): 97 % of control; T/C (dose: 4.0 mg/kg/injection, schedule: Q01DX009 (ip), vehicle: saline): 105 % of control; T/C (dose: 8.8 mg/kg/injection, schedule: Q01DX009 (ip), vehicle: saline): 117 % of control; T/C (dose: 13.0 mg/kg/injection, schedule: Q01DX009 (ip), vehicle: saline): 121 % of control; T/C (dose: 20.0 mg/kg/injection, schedule: Q01DX009 (ip), vehicle: saline): 121 % of control; T/C [10]: 163 % of control; T/C (dose: 75.0 mg/kg/injection, schedule: Q## X003 (ip), vehicle: saline): 122 % of control; T/C [5]: 100 % of control; T/C (dose: 600.0 mg/kg/injection, schedule: Q## X003 (ip), vehicle: saline): 102 % of control

Q: Which results are given for `O=C1CSCc2ccccc21`?
A: T/C (dose: 100.0 mg/kg/injection, schedule: Q04DX002 (ip), vehicle: Klucel (hydroxypropylcellulose) (HPC)): 103 % of control; T/C (dose: 200.0 mg/kg/injection, schedule: Q04DX002 (ip), vehicle: Klucel (hydroxypropylcellulose) (HPC)): 95 % of control; T/C (dose: 400.0 mg/kg/injection, schedule: Q04DX002 (ip), vehicle: Klucel (hydroxypropylcellulose) (HPC)): 95 % of control

Q: Which results are given for `O=C(O)c1cc([N+](=O)[O-])ccc1Nc1cccc2ccccc12`?
A: T/C [3]: 90 % of control; T/C [6]: 97 % of control

Q: For `O=C(c1cccc(C(=O)N(c2ccccc2)C2CCCCC2)c1)N(c1ccccc1)C1CCCCC1`, which T/C [11] is on record?
A: 100 % of control

Q: And the T/C (dose: 200.0 mg/kg/injection, schedule: Q01DX009 (ip), vehicle: Klucel (hydroxypropylcellulose) (HPC))?
A: 94 % of control

Q: What about the T/C (dose: 400.0 mg/kg/injection, schedule: Q01DX009 (ip), vehicle: Klucel (hydroxypropylcellulose) (HPC)) of the same molecule?
A: 98 % of control

Q: For `Nc1ccc([N+](=O)[O-])c2ccccc12`, which T/C (dose: 50.0 mg/kg/injection, schedule: Q01DX001 (ip), vehicle: carboxymethylcellulose (CMC)) is on record?
A: 87 % of control

Q: And the T/C [12]?
A: 93 % of control

Q: What about the T/C [13] of the same molecule?
A: 98 % of control

Q: What about the T/C [14] of the same molecule?
A: 87 % of control

Q: Which results are given for `CC1(C)C2CCC(CCO)C1C2` (stereo unspecified)?
A: T/C (dose: 12.5 mg/kg/injection, schedule: Q04DX003 (ip), vehicle: saline with Tween-80): 92 % of control; T/C (dose: 25.0 mg/kg/injection, schedule: Q01DX009 (ip), vehicle: saline): 96 % of control; T/C (dose: 25.0 mg/kg/injection, schedule: Q04DX003 (ip), vehicle: saline with Tween-80): 88 % of control; T/C [10]: 92 % of control; T/C (dose: 50.0 mg/kg/injection, schedule: Q04DX003 (ip), vehicle: saline with Tween-80): 95 % of control; T/C [2]: 88 % of control; T/C [15]: 92 % of control

Q: `COc1cc(/C=N\NC(=O)c2ccncc2)ccc1O` was tested. Which T/C [15] did it give?
A: 100 % of control

Q: And the T/C [16]?
A: 97 % of control

Q: And the T/C (dose: 400.0 mg/kg/injection, schedule: Q04DX003 (ip), vehicle: saline with Tween-80)?
A: 103 % of control

Q: Which results are given for `Cc1ccc(S(=O)(=O)c2ccccc2)cc1`?
A: T/C [3]: 103 % of control; T/C [6]: 91 % of control; T/C [9]: 95 % of control

Q: With `O=C1CCN(Cl)C(=O)N1Cl` as the molecule, how does the T/C (dose: 5.0 mg/kg/injection, schedule: Q01DX001 (ip), vehicle: saline) read?
A: 93 % of control

Q: And the T/C (dose: 10.0 mg/kg/injection, schedule: Q01DX001 (ip), vehicle: saline)?
A: 95 % of control

Q: And the T/C (dose: 20.0 mg/kg/injection, schedule: Q01DX001 (ip), vehicle: saline)?
A: 97 % of control

Q: With `ClC(Cl)(Cl)c1ccc(C(Cl)(Cl)Cl)cc1` as the molecule, how does the T/C [17] read?
A: 96 % of control

Q: And the T/C [18]?
A: 104 % of control

Q: What about the T/C (dose: 50.0 mg/kg/injection, schedule: Q01DX009 (ip), vehicle: Klucel (hydroxypropylcellulose) (HPC)) of the same molecule?
A: 94 % of control and 97 % of control

Q: And the T/C [11]?
A: 94 % of control

Q: What about the T/C [19] of the same molecule?
A: 105 % of control

Q: What about the T/C (dose: 200.0 mg/kg/injection, schedule: Q04DX003 (ip), vehicle: Klucel (hydroxypropylcellulose) (HPC)) of the same molecule?
A: 91 % of control

Q: For `Cc1nnc2nc3c(nn12)c1ccccc1n3C`, which T/C (dose: 6.25 mg/kg/injection, schedule: Q04DX002 (ip), vehicle: saline) is on record?
A: 100 % of control

Q: What about the T/C (dose: 12.5 mg/kg/injection, schedule: Q04DX002 (ip), vehicle: saline) of the same molecule?
A: 103 % of control

Q: What about the T/C (dose: 25.0 mg/kg/injection, schedule: Q04DX002 (ip), vehicle: saline) of the same molecule?
A: 96 % of control

Q: What does the source list for `O=C1c2ccccc2C(=O)N1c1cc(=O)[nH]c(=O)[nH]1`?
A: T/C [20]: 111 % of control; T/C [21]: 92 % of control

Q: `O=C(Oc1ccc([N+](=O)[O-])cc1)c1cccc(S(=O)(=O)F)c1` was tested. Which T/C [12] did it give?
A: 93 % of control and 102 % of control

Q: What about the T/C (dose: 100.0 mg/kg/injection, schedule: Q01DX009 (ip), vehicle: carboxymethylcellulose (CMC)) of the same molecule?
A: 103 % of control and 110 % of control

Q: And the T/C (dose: 100.0 mg/kg/injection, schedule: Q04DX003 (ip), vehicle: carboxymethylcellulose (CMC))?
A: 104 % of control

Q: What about the T/C [13] of the same molecule?
A: 98 % of control and 101 % of control

Q: What about the T/C (dose: 200.0 mg/kg/injection, schedule: Q01DX009 (ip), vehicle: carboxymethylcellulose (CMC)) of the same molecule?
A: 92 % of control and 94 % of control

Q: What about the T/C (dose: 200.0 mg/kg/injection, schedule: Q04DX003 (ip), vehicle: carboxymethylcellulose (CMC)) of the same molecule?
A: 102 % of control and 90 % of control

Q: What about the T/C [14] of the same molecule?
A: 98 % of control and 101 % of control

Q: What about the T/C (dose: 400.0 mg/kg/injection, schedule: Q01DX009 (ip), vehicle: carboxymethylcellulose (CMC)) of the same molecule?
A: 92 % of control

Q: What about the T/C (dose: 400.0 mg/kg/injection, schedule: Q04DX003 (ip), vehicle: carboxymethylcellulose (CMC)) of the same molecule?
A: 96 % of control and 90 % of control

Q: `CC1(C)[C@H](C(=O)O)CC[C@]1(C)C(=O)O` was tested. Which T/C (dose: 100.0 mg/kg/injection, schedule: Q01DX001 (ip), vehicle: other) did it give?
A: 103 % of control

Q: And the T/C (dose: 200.0 mg/kg/injection, schedule: Q01DX001 (ip), vehicle: other)?
A: 103 % of control

Q: What about the T/C (dose: 400.0 mg/kg/injection, schedule: Q01DX001 (ip), vehicle: other) of the same molecule?
A: 105 % of control

Q: With `CCCCC(CC)CO.[Ti]` (stereo unspecified) as the molecule, how does the T/C [15] read?
A: 96 % of control

Q: What about the T/C [16] of the same molecule?
A: 96 % of control

Q: `c1ccc2c(c1)ccc1[nH]c3ccc4ccccc4c3c12` was tested. Which T/C [17] did it give?
A: 109 % of control

Q: What about the T/C [18] of the same molecule?
A: 93 % of control

Q: What about the T/C [20] of the same molecule?
A: 107 % of control

Q: And the T/C [21]?
A: 86 % of control

Q: And the T/C [19]?
A: 97 % of control

Q: `NNC(=O)c1cc(N)nc(Cl)c1` was tested. Which T/C [1] did it give?
A: 96 % of control

Q: What about the T/C [4] of the same molecule?
A: 96 % of control

Q: What about the T/C [7] of the same molecule?
A: 98 % of control

Q: What does the source list for `COc1cc(C(=O)NCCBr)cc(OC)c1OC`?
A: T/C [3]: 107 % of control; T/C [6]: 108 % of control; T/C [9]: 103 % of control

Q: For `CCOc1ccccc1C(N)=O`, which T/C [2] is on record?
A: 96 % of control

Q: And the T/C (dose: 100.0 mg/kg/injection, schedule: Q04DX003 (ip), vehicle: other)?
A: 96 % of control

Q: And the T/C [5]?
A: 107 % of control

Q: What about the T/C (dose: 200.0 mg/kg/injection, schedule: Q04DX003 (ip), vehicle: other) of the same molecule?
A: 104 % of control

Q: And the T/C [8]?
A: 102 % of control

Q: And the T/C (dose: 400.0 mg/kg/injection, schedule: Q04DX003 (ip), vehicle: other)?
A: 105 % of control
